# In US6133292A, “Diaryl-5-alkyl-5-methyl-2-(5H)-furanones as selective cyclooxygenase-2-inhibitors” (Merck Frosst Canada & Co., priority 1998, dated 2000):
# Experiments:
# [1] = biological target: T1, COX-2 (Homo sapiens, UniProt P35354); assay: Human whole blood assay, COX-2 (LPS-induced PGE2 production); format: cell-based; design: incubation of human whole blood with LPS, which induces COX-2; from tissue; host or cells: fresh heparinized human whole blood from male and female volunteers, LPS-stimulated; conditions: 24 hours at 37° C, read-out: HWB Cox-2 (IC50, inhibition of PGE2 production)
# T1 sequence (P35354 18-604): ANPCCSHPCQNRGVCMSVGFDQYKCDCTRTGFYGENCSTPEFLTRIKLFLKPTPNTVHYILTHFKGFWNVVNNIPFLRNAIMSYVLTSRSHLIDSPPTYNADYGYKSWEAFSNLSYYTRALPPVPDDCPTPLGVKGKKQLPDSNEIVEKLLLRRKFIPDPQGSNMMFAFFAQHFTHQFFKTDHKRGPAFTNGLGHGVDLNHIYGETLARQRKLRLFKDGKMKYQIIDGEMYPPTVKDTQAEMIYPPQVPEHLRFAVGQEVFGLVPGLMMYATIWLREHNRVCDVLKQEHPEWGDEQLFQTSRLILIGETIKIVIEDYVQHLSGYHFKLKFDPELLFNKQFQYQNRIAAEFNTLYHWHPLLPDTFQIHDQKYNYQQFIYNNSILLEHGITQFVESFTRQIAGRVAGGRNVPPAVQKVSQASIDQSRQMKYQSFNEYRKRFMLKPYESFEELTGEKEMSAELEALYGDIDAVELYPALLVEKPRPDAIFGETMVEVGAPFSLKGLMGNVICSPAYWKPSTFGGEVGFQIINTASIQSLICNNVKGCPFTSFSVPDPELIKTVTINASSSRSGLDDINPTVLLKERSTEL
# Protocol: Human whole blood provides a protein and cell-rich milieu appropriate for the study of biochemical efficacy of anti-inflammatory compounds such as selective COX-2 inhibitors. […] This is consistent with the observation that COX-2 inhibitors have no effect on PGE2 production in normal blood. These inhibitors are active only after incubation of human whole blood with LPS, which induces COX-2. This assay can be used to evaluate the inhibitory effect of selective COX-2 inhibitors on PGE2 production. As well, platelets in whole blood contain a large amount of the COX-1 enzyme. Immediately following blood clotting, platelets are activated through a thrombin-mediated mechanism. This reaction results in the production of thromboxane B2 (TXB2) via activation of COX-1. Thus, the effect of test compounds on TxB2 levels following blood clotting can be examined and used as an index for COX-1 activity. Therefore, the degree of selectivity by the test compound can be determined by measuring the levels of PGE2 after LPS induction (COX-2) and TxB2 following blood clotting (COX-1) in the same assay.
# A. COX-2 (LPS-induced PGE9 production)
# Fresh blood is collected in heparinized tubes by venipuncture from both male and female volunteers. The subjects have no apparent inflammatory conditions and have not taken any NSAIDs for at least 7 days prior to blood collection. Plasma is immediately obtained from a 2 mL blood aliquot to use as blank (basal levels of PGE2). The remaining blood is incubated with LPS (100 μg/ml final concentration, Sigma Chem, #L-2630 from E. coli; diluted in 0.1% BSA (Phosphate buffered saline) for 5 minutes at room temperature. Five hundred μL aliquots of blood are incubated with either 2 μL of vehicle (DMSO) or 2 μL of a test compound at final concentrations varying from 10 nM to 30 μM for 24 hours at 37° C. At the end of the incubation, the blood is centrifuged at 12,000 x g for 5 minutes to obtain plasma. A 100 μL aliquot of plasma is mixed with 400 μL of methanol for protein precipitation. The supernatant is obtained and is assayed for PGE2 using a radioimmunoassay kit (Amersham, RPA#530) after conversion of PGE2 to its methyl oximate derivative according to the manufacturer's procedure.
# (§1) Compounds of the present invention are inhibitors of COX-2 and are thereby useful in the treatment of COX-2 mediated diseases as enumerated above. The activities of the compounds against cyclooxygenase may be seen in the representative results shown below. In the assay, inhibition is determined by measuring the amount of prostaglandin E2 (PGE2) synthesized in the presence of arachidonic acid, COX-1 or COX-2 and a putative inhibitor. The IC50 values represent the concentration of putative inhibitor required to lower PGE2 synthesis to 50% of that obtained as compared to the uninhibited control.
# [2] = biological target: T1, COX-2; assay: Whole cell assay for COX-2 using CHO transfected cell line (CHO [hCOX-2]); format: cell-based; design: expressed in transfected cells; host or cells: Chinese hamster ovary (CHO) cells, stably transfected, CHO[hCOX-2]; conditions: CHO[hCOX-2] cells, 10 μM AA; read-out: CHO Cox-2 (IC50, inhibition of PGE2 production)
# Text: Whole cell assays for COX-2 and COX-1 using CHO transfected cell lines
# Chinese hamster ovary (CHO) cell lines which have been stably transfected with an eukaryotic expression vector pCDNAIII containing either the human COX-1 or COX-2 cDNA's are used for the assay. These cell lines are referred to as CHO [hCOX-1] and CHO [hCOX-2], respectively. For cyclooxygenase assays, CHO[hCOX-1] cells from suspension cultures and CHO[hCOX-2] cells prepared by trypsinization of adherent cultures are harvested by centrifugation (300 x g, 10 min) and washed once in HBSS containing 15 mM HEPES, pH 7.4, and resuspended in HBSS, 15 mM HEPES, pH 7.4, at a cell concentration of 1.5×10^6 cells/ml. Drugs to be tested are dissolved in DMSO to 66.7-fold the highest test drug concentration. Compounds are typically tested at 8 concentrations in duplicate using serial 3-fold serial dilutions in DMSO of the highest drug concentration. Cells (0.3×10^6 cells in 200 μl) are preincubated with 3 μl of the test drug or DMSO vehicle for 15 min at 37° C. Working solutions of peroxide-free AA (5.5 μM and 110 μM AA for the CHO [hCOX-1] and CHO [COX-2] assays, respectively) are prepared by a 10-fold dilution of a concentrated AA solution in ethanol into HBSS containing 15 mM HEPES, pH 7.4. Cells are then challenged in the presence or absence of drug with the AA/HBSS solution to yield a final concentration of 0.5 μM AA in the CHO[hCOX-1] assay and a final concentration of 10 μM AA in the CHO[hCOX-2] assay. The reaction is terminated by the addition of 10 μl 1 N HCl followed by neutralization with 20 μl of 0.5 N NaOH. The samples are centrifuged at 300 x g at 4° C. for 10 min, and an aliquot of the clarified supernatant is appropriately diluted for the determination of PGE2 levels using an enzyme-linked immunoassay for PGE2 (Correlate PGE2 enzyme immunoassay kit, Assay Designs, Inc.). Cyclooxygenase activity in the absence of test compounds is determined as the difference in PGE2 levels of cells challenged with arachidonic acid versus the PGE2 levels in cells mock-challenged with ethanol vehicle. Inhibition of PGE2 synthesis by test compounds is calculated as a percentage of the activity in the presence of drug versus the activity in the positive control samples.
# as §1
IC50 [1] [µM],IC50 [2] [µM],Structure (SMILES)
0.31,0.057,"CC[C@]1(C)OC(=O)C(c2ccc(F)cc2)=C1c1ccc(S(C)(=O)=O)cc1 [d, (5S)-5-ethyl-3-(4-fluorophenyl)-5-methyl-4-[4-(methylsulfonyl)phenyl]-2,5-dihydro-2-furanone]"
< 0.37,0.042,"CC1(C)OC(=O)C(c2ccc(F)cc2)=C1c1ccc(S(C)(=O)=O)cc1 [Compound T3-1, 3-(4-fluorophenyl)-5,5-dimethyl-4-[4-(methylsulfonyl)phenyl]-2,5-dihydro-2-furanone, reference compound]"
0.13,0.02,"CC[C@@]1(C)OC(=O)C(c2ccc(F)cc2)=C1c1ccc(S(C)(=O)=O)cc1 [e, (5R)-5-ethyl-3-(4-fluorophenyl)-5-methyl-4-[4-(methylsulfonyl)phenyl]-2,5-dihydro-2-furanone]"
3.55,0.692,"CCCC1(C)OC(=O)C(c2cccc(F)c2)=C1c1ccc(S(C)(=O)=O)cc1 (stereo not shown) [o, 3-(3-fluorophenyl)-5-methyl-4-[4-(methylsulfonyl)phenyl]-5-propyl-2,5-dihydro-2-furanone]"
0.53,0.042,"CC[C@]1(C)OC(=O)C(c2ccc(F)c(F)c2)=C1c1ccc(S(C)(=O)=O)cc1 [i, (5S)-3-(3,4-difluorophenyl)-5-ethyl-5-methyl-4-[4-(methylsulfonyl)phenyl] -2,5-dihydro-2-furanone]"
2.51,0.194,"CCCC1(C)OC(=O)C(c2ccc(F)cc2)=C1c1ccc(S(C)(=O)=O)cc1 (stereo not shown) [n, 3-(4-fluorophenyl)-5-methyl-4-[4-(methylsulfonyl)phenyl]-5-propyl-2,5-dihydro-2-furanone]"
13.9,> 5,"CCC1(CC)OC(=O)C(c2ccc(F)cc2)=C1c1ccc(S(C)(=O)=O)cc1 [u, 5,5-diethyl-3-(4-fluorophenyl)-4-[4-(methylsulfonyl)phenyl]-2,5-dihydro-2-furanone, reference compound]"
2.44,0.237,"CCCC1(C)OC(=O)C(c2ccc(F)c(F)c2)=C1c1ccc(S(C)(=O)=O)cc1 (stereo not shown) [p, 3-(3,4-difluorophenyl)-5-methyl-4-[4-(methylsulfonyl)phenyl]-5-propyl-2,5-dihydro-2-furanone]"
0.59,0.022,"CCC1(C)OC(=O)C(c2ccc(F)cc2)=C1c1ccc(S(C)(=O)=O)cc1 (stereo not shown) [c, 5-ethyl-3-(4-fluorophenyl)-5-methyl-4-[4-(methylsulfonyl)phenyl]-2,5-dihydro-2-furanone]"
12.2,> 5,"CCC1(CC)OC(=O)C(c2ccccc2)=C1c1ccc(S(C)(=O)=O)cc1 [t, 5,5-diethyl-4-[4-(methylsulfonyl)phenyl]-3-phenyl-2,5-dihydro-2-furanone, reference compound]"
1.55,0.051,"CC[C@@]1(C)OC(=O)C(c2ccc(F)c(F)c2)=C1c1ccc(S(C)(=O)=O)cc1 [h, (5R)-3-(3,4-difluorophenyl)-5-ethyl-5-methyl-4-[4-(methylsulfonyl)phenyl] -2,5-dihydro-2-furanone]"
